Results on 45 molecules are retold here after US10774053B2, “HIV protease inhibitors” (Gilead Sciences, Inc., priority 2017, dated 2020).

Where two headings read alike, the source gives them in different places.

The test system of the experiment is HIV-1 (IIIB) in MT-4 cells. In words: microbe, parasite or virus in culture. In kind it is cell-based.
The mark [1] stands for this setting: Human immunodeficiency virus 1, IIIB, MT4, MT-4 cells, HIV-1, read-out: MT4 EC50.
Setting [2] is: Human immunodeficiency virus 1, IIIB, MT4, read-out: MT4 EC50 (nM).

As for `[H]/N=C1\N[C@](CC(C)(C)C)(c2ccc(-c3cnn(C(F)F)c3)cc2F)C(=O)N1[C@H](COC(=O)NC1CC1)c1ccc(Cl)c(-c2ncn[nH]2)c1` [Compound 11], the EC50 – broadly, the concentration needed to bring the measured effect to its halfway point – under setting [1] is 35.5 nM.

For the molecule `CC(C)(F)C[C@]1(c2ccc(-c3ncccn3)cc2)NC(=N)N([C@H](COC(=O)NC2(C(F)(F)F)CC2)c2ccc(Cl)c(-n3ncnc3C(F)F)c2)C1=O` [Compound 329], under setting [1], the EC50 was 23 nM.

`Cn1ccc(-c2ccc([C@@]3(CC(C)(C)C)NC(=N)N([C@H](COC(=O)N[C@H]4CC4(F)F)c4ccc(Cl)c(-n5ncnc5C(F)F)c4)C3=O)cc2)n1` [Compound 296]: the EC50 under setting [1] is 8.57 nM.

For `CC(C)(C)C[C@]1(c2ccc(-c3cnn(C4CC4)c3)cc2F)NC(=N)N([C@H](COC(=O)NC2(C(F)(F)F)CC2)c2ccc(Cl)c(-n3ncnc3C(F)F)c2)C1=O` [Compound 209], the EC50 under setting [1] was determined as 14.7 nM.

As for `CC(C)(F)C[C@]1(c2ccc(-c3ncccn3)cc2)NC(=N)N([C@H](COC(=O)NC(C)(C)C(F)F)c2ccc(Cl)c(-c3ncnn3C(F)F)c2)C1=O` [Compound 127], the EC50 under setting [1] was found to be 27.5 nM.

With `CC(C)(C)C[C@]1(c2ccc(-c3ncc(F)cn3)cc2)NC(=N)N([C@H](COC(=O)NC2(C(F)(F)F)CC2)c2ccc(Cl)c(-n3ncnc3C(F)F)c2)C1=O` [Compound 275], under setting [1], the EC50 stood at 12.8 nM.

For `C[C@H](NC(=O)OC[C@H](c1ccc(Cl)c(-n2ncnc2C(F)F)c1)N1C(=N)N[C@](CC(C)(C)C)(c2ccc(-c3cn(C4CC4)nn3)cc2)C1=O)C(F)(F)F` [Compound 233], under setting [1], the EC50 stood at 13.6 nM.

In the case of `Cn1nccc1-c1ccc([C@@]2(CC(C)(C)C)NC(=N)N([C@H](COC(=O)NC3(C(F)(F)F)CC3)c3ccc(Cl)c(-n4ncnc4C(F)F)c3)C2=O)cc1` [Compound 205], the EC50 under setting [1] amounted to 20.2 nM.

Regarding `CC(C)(C)C[C@]1(c2ccc(-c3cnn(C(F)F)c3)cc2)NC(=N)N([C@H](CO)c2ccc(Cl)c(-n3cncn3)c2)C1=O` [Compound 246], the EC50 under setting [1] is 84.3 nM.

As to `CC(C)(C)C[C@]1(c2ccc(-c3cnn(C(F)F)c3)cc2)NC(=N)N([C@H](COC(=O)NC(C)(C)C(F)(F)F)c2ccc(Cl)c(-c3ncnn3C(F)F)c2)C1=O` [Compound 115], the EC50 under setting [1] was 11.7 nM.

Consider `CC(C)(C)C[C@]1(c2ccc(-c3cnccn3)cc2F)NC(=N)N([C@H](COC(=O)NC2CC2)c2ccc(Cl)c(-c3ncn[nH]3)c2)C1=O` [Compound 21], for which, under setting [1], the EC50 is 63.8 nM.

In the case of `CC(C)(C)C[C@]1(c2ccc(-n3cnnn3)c(F)c2)NC(=N)N([C@H](COC(=O)NC2(C(F)(F)F)CC2)c2ccc(Cl)c(-n3ncnc3C(F)F)c2)C1=O` [Compound 355], the EC50 under setting [1] worked out at 24.6 nM.

Consider `C[C@H](NC(=O)OC[C@H](c1ccc(Cl)c(-c2ncnn2C(F)F)c1)N1C(=N)N[C@](CC(C)(C)C)(c2ccc(-c3cn(C45CC(C4)C5)nn3)c(F)c2)C1=O)C(F)(F)F` [Compound 148], for which the EC50 under setting [1] was 13.8 nM.

For the molecule `C[C@@H](C(=O)NC[C@H](c1ccc(Cl)c(-c2ncnn2C(F)F)c1)N1C(=N)N[C@](CC(C)(C)C(F)(F)F)(c2ccc(-c3cnn(C4CC4)n3)cc2)C1=O)C(F)(F)F` [Compound 162], under setting [1], the EC50 was found to be 21 nM.

With `COc1ccc([C@@]2(CC(C)(C)C)NC(=N)N([C@H](COC(=O)N(C)C)c3ccc(Cl)c(-c4nccn4C)c3)C2=O)c(F)c1` [Compound 9], the EC50 under setting [1] came to 1690 nM.

As for `CC(C)(C)C[C@]1(c2ccc(-c3cnn(C(F)F)c3)cc2)NC(=N)N([C@H](COC(=O)N[C@@H]2C[C@@H]2F)c2ccc(Cl)c(-n3ncnc3C(F)F)c2)C1=O` [Compound 287], the EC50 under setting [1] turned out to be 7.55 nM.

With `CC1(NC(=O)OC[C@H](c2ccc(Cl)c(-n3cccn3)c2)N2C(=N)N[C@](CC(C)(C)C(F)(F)F)(c3cc(F)cc(F)c3)C2=O)CC1` [Compound 262], the EC50 under setting [1] came out at 1800 nM.

Regarding `CC(C)(C)C[C@]1(c2ccc(-c3cnn(C(F)F)c3)cc2)NC(=N)N([C@H](COC(=O)NC2CC2(F)F)c2ccc(Cl)c(-n3ncnc3C(F)F)c2)C1=O` (stereo partly drawn) [Compound 211], the EC50 under setting [1] was 10.8 nM.

Take `CC(C)(C)C[C@]1(c2ccc(-c3ccsn3)cc2)NC(=N)N([C@H](COC(=O)NC2(C(F)(F)F)CC2)c2cccc(-n3ncnc3C(F)F)c2)C1=O` [Compound 322]: under setting [1], the EC50 was found to be 39 nM.

In the case of `Cn1nnnc1-c1ccc([C@@]2(CC(C)(C)C)NC(=N)N([C@H](COC(=O)NC3(C(F)(F)F)CC3)c3ccc(Cl)c(-n4ncnc4C(F)F)c3)C2=O)cc1` [Compound 358], under setting [1], the EC50 came to 76.2 nM.

In the case of `C[C@@H](NC(=O)OC[C@H](c1ccc(Cl)c(-n2ncnc2C(F)F)c1)N1C(=N)N[C@](CC(C)(C)C)(c2ccc(-c3cnn(C(F)F)c3)cc2)C1=O)C(F)F` [Compound 343], the EC50 under setting [1] is 17 nM.

For the molecule `CC(C)(C)C[C@]1(c2ccc(-c3cnn(C4CC4)n3)c(F)c2)NC(=N)N([C@H](COC(=O)NC2(C(F)(F)F)CC2)c2ccc(Cl)c(-n3ncnc3C(F)F)c2)C1=O` [Compound 225], the EC50 under setting [1] was 17.4 nM.

For the molecule `CC(C)(F)C[C@]1(c2ccc(-c3cnccn3)cc2)NC(=N)N([C@H](COC(=O)NC2(C(F)(F)F)CC2)c2ccc(Cl)c(-n3ncnc3C(F)F)c2)C1=O` [Compound 328], the EC50 under setting [1] stood at 22.4 nM.

For `CC(C)(C)C[C@]1(c2ccc(-c3cnn(C(F)F)c3)cc2)NC(=N)N([C@H](COC(=O)N[C@H]2C[C@@H]2F)c2ccc(Cl)c(-n3ncnc3C(F)F)c2)C1=O` [Compound 338], the EC50 under setting [1] was 9.94 nM.

With `CC(C)(C)C[C@]1(c2cc(F)cc(F)c2)NC(=N)N([C@H](COC(=O)NC2(C)CC2)c2ccc(Cl)c(-n3cc(-c4ccccn4)cn3)c2)C1=O` [Compound 256], the EC50 under setting [1] was determined as 554 nM.

With `CC(C)(F)C[C@]1(c2ccc(-c3ncccn3)cc2F)NC(=N)N([C@H](COC(=O)NC(C)(C)C(F)F)c2ccc(Cl)c(-c3ncnn3C(F)F)c2)C1=O` [Compound 132], the EC50 under setting [1] came out at 48 nM.

Consider `CC(C)(CC#N)C[C@]1(c2ccc(-c3cnn(C4CC4)c3)cc2)NC(=N)N([C@H](COC(=O)NC2(C(F)(F)F)CC2)c2ccc(Cl)c(-n3ncnc3C(F)F)c2)C1=O` [Compound 362], for which, under setting [1], the EC50 was 36.4 nM.

Regarding `Cn1ncnc1-c1cc([C@@H](COC(=O)NC(C)(C)C(F)F)N2C(=N)N[C@](CC(C)(C)C(F)(F)F)(c3ccc(-c4cnn(C(F)F)c4)cc3)C2=O)ccc1Cl` [Compound 130], the EC50 under setting [1] was determined as 18.7 nM.

In the case of `[H]/N=C1\N[C@](CC(C)(C)C)(c2ccc(-c3cnn(C(F)F)c3)cc2F)C(=O)N1[C@H](COC(=O)NC1CC1)c1ccc(Cl)c(-c2ncccn2)c1` [Compound 14], under setting [2], the EC50 came out at 68.6 nM.

Consider `CC(C)(C)C[C@]1(c2ccc(-c3cnn(C4CC4)c3)c(Cl)c2)NC(=N)N([C@H](COC(=O)NC2(C(F)(F)F)CC2)c2ccc(Cl)c(-n3ncnc3C(F)F)c2)C1=O` [Compound 316], for which the EC50 under setting [1] was found to be 13.3 nM.

For `CC(C)n1ncc(-c2ccc([C@@]3(CC(C)(C)C)NC(=N)N([C@H](COC(=O)NC4(C(F)(F)F)CC4)c4ccc(Cl)c(-n5ncnc5C(F)F)c4)C3=O)cc2)n1` [Compound 371], the EC50 under setting [1] came to 26.7 nM.

As for `CC(C)(C)C[C@]1(c2ccc(-c3cnn(C(F)F)c3)cc2)NC(=N)N([C@H](COC(=O)N[C@@H]2CC2(F)F)c2ccc(Cl)c(-n3ncnc3C(F)F)c2)C1=O` (single isomer, unassigned) [Compound 334], the concentration for a half-maximal effect (EC50) under setting [1] turned out to be 8.98 nM.

As for `CC(C)(C)C[C@]1(c2ccc(-c3cnn(C(F)F)c3)cc2)NC(=N)N([C@H](COC(=O)NC2(C(F)(F)F)CC2)c2ccc(Cl)c(-c3ncn[nH]3)c2)C1=O` [Compound 25], the EC50 under setting [2] turned out to be 52.7 nM.

Take `CC(C)(C)C[C@]1(c2ccc(C#CC(C)(C)S(C)(=O)=O)cc2)NC(=N)N([C@H](COC(=O)NC(C)(C)C(F)F)c2ccc(Cl)c(-n3cncn3)c2)C1=O` [Compound 377]: the EC50 under setting [1] turned out to be 90.7 nM.

Take `CC(C)(C)C[C@]1(c2ccc(-c3cncs3)cc2F)NC(=N)N([C@H](COC(=O)NC2(C(F)(F)F)CC2)c2ccc(Cl)c(-n3ncnc3C(F)F)c2)C1=O` [Compound 199]: the EC50 under setting [1] amounted to 7.6 nM.

Consider `CC(C)C(=O)NC[C@H](c1ccc(Cl)c(-n2ncnc2C(F)F)c1)N1C(=N)N[C@](CC(C)(C)C(F)(F)F)(c2ccc(-c3cnn(C4CC4)n3)cc2)C1=O` [Compound 388], for which the EC50 under setting [1] was determined as 16.9 nM.

Turning to `CC(C)(C)C[C@]1(c2ccc(-c3cnn(C(F)F)c3)cc2F)NC(=N)N([C@H](COC(=O)N2CC(F)(F)C2)c2ccc(Cl)c(-c3ncn[nH]3)c2)C1=O` [Compound 111], the EC50 under setting [1] amounted to 40.4 nM.

For the molecule `CC(C)(C[C@]1(c2ccc(-c3cnn(C(F)F)c3)cc2)NC(=N)N([C@H](COC(=O)NC2(C(F)(F)F)CC2)c2ccc(Cl)c(-n3ncnc3C(F)F)c2)C1=O)C1CC1` [Compound 231], the concentration giving a half-maximal response (EC50) under setting [1] amounted to 12.2 nM.

Consider `[H]/N=C1\N[C@](CC(C)(C)C)(c2ccc(-c3cnn(C(F)F)c3)cc2F)C(=O)N1[C@H](COC(=O)NC1CC1)c1ccc(Cl)c(-c2ncccc2Cl)c1` [Compound 13], for which the EC50 under setting [2] amounted to 310 nM.

In the case of `CC(C)(C)C[C@]1(c2ccc(-c3cnn(C(F)F)c3)cc2)NC(=N)N([C@H](COC(=O)NC2(C)CC2)c2ccc(Cl)c(-n3cc(C4CC4)cn3)c2)C1=O` [Compound 264], the EC50 under setting [1] worked out at 228 nM.

Take `CC(C)(C)C[C@]1(c2ccc(-c3cnn(C(F)F)c3)cc2)NC(=N)N([C@H](COC(=O)N2CC(S(C)(=O)=O)C2)c2ccc(Cl)c(-c3ncn[nH]3)c2)C1=O` [Compound 84]: under setting [1], the EC50 stood at 1050 nM.

As for `CC(C)(C)C[C@]1(c2ccc(-c3cnn(C4CC4)c3)cc2)NC(=N)N([C@H](COC(=O)NC2(C(F)(F)F)CC2)c2ccc(Cl)c(-n3ncnc3C(F)F)c2)C1=O` [Compound 207], the EC50 under setting [1] was 13.9 nM.

On to `CC(C)(C)C[C@]1(c2ccc(-c3cn(C4CC4)nn3)cc2)NC(=N)N([C@H](COC(=O)NC2(C(F)(F)F)CC2)c2ccc(Cl)c(-n3ncnc3C(F)F)c2)C1=O` [Compound 232], for which, under “MT-4 cells, HIV-1, read-out: MT4 EC50”, the half-maximal effective concentration (EC50) was found to be 18.2 nM.

`CC(C)(C)C[C@]1(c2ccc(-c3cnn(C(F)F)c3)cc2)NC(=N)N([C@H](COC(=O)NC2CC2)c2ccc(Cl)c(-c3cncn3C(F)F)c2)C1=O` [Compound 37]: the EC50 under setting [1] came to 219 nM.

As for `CC(C)(F)C[C@]1(c2ccc(Br)cc2)NC(=N)N([C@H](COC(=O)NC(C)(C)C(F)F)c2ccc(Cl)c(-c3ncnn3C(F)F)c2)C1=O` [Compound 126], the EC50 under setting [1] is 242 nM.
